Potato dihydroorotase activity data for 2 compounds are collected here from patent publication US7727753B2, “Plant dihydroorotase” (BASF Aktiengesellschaft, priority 1999, dated 2010).

The assay has as its system potato dihydroorotase. As to the kind of experiment: Measurement of the dihydroorotase activity (dihydroorotate-dehydrogenase-coupled photometric assay at 340 nm, or colorimetric assay). Format: biochemical, Solanum tuberosum. The following applies: activity measured in the assay systems described; recombinant enzyme expressed in E. coli. From the text: The enzymatic detection developed to date for measuring the dihydroorotase activity by the method of Mazus and Buchowicz, (Acta Biochimica Polonica (1968), 15(4), 317-325) is based on detecting the orotate formed at 280 nm in a dihydroorotate-dehydrogenase-coupled reaction mixture. Prerequisite for doing so is a high activity of the auxiliary enzyme, viz. dihydroorotate dehydrogenase. […] In order to be able to carry out a mass screening, the specific dihydroorotate dehydrogenase activity must be at least ten times higher than is the case in the commercial preparation. […] The enzyme activity was determined in a photometric assay by measurement in a photometer (Uvikon 933, Kontron) at 340 nm. […] In each case […] of the resulting enzyme fraction was made up with buffer to […] and measured against a reference cell containing […] reaction buffer and 100 ml of a protein homogenate of untransformed E. coli culture. […] Identical quantities of total protein were employed for measuring the untransformed or transformed E. coli extracts. […] Alternatively, the dihydroorotase may also be measured in a less sensitive colorimetric assay by the method of Prescott and Jones (Anal. Biochem. (1969) 32, 408-419) without being coupled to dihydroorotate dehydrogenase. […]

In the case of `O=C1NC(C(=O)O)=CC(C(=O)O)N1` (centres unmarked) [2-oxo-1,2,3,6-tetrahydropyrimidine-4,6-dicarboxylate], the potato dihydroorotase activity result is recorded as “can be reduced”.

Turning to `O=C1NC(=S)C[C@@H](C(=O)O)N1` [6-L-thiodihydroorotate], the potato dihydroorotase activity entry is recorded as “can be reduced”.
